Key:
NCI-H226 = assay: Antiproliferative activity against human NCI-H226 cells assessed as cell growth inhibition incubated for 3 days by SRB assay; format: functional, cell-based; conditions: NCI-H226, 72 h
Calu-1 = assay: Antiproliferative activity against human Calu-1 cells assessed as cell growth inhibition incubated for 3 days by SRB assay; format: functional, cell-based; conditions: Calu-1, 72 h
LS174T = assay: Antiproliferative activity against human LS174T cells assessed as cell growth inhibition incubated for 3 days by SRB assay; format: functional, cell-based; conditions: 72 h
HCT-116 = assay: Antiproliferative activity against human HCT-116 cells assessed as cell growth inhibition incubated for 3 days by SRB assay; format: functional, cell-based; conditions: HCT-116, 72 h
[1] = target: T1, Ubiquitin carboxyl-terminal hydrolase 28 (Homo sapiens, UniProt Q96RU2); assay: Inhibition of USP28 (149 to 703 residues) (unknown origin) expressed in Escherichia coli BL21 (DE3) using Ub-AMC as substrate by fluorescence based analysis
T1 sequence (Q96RU2 whole entry): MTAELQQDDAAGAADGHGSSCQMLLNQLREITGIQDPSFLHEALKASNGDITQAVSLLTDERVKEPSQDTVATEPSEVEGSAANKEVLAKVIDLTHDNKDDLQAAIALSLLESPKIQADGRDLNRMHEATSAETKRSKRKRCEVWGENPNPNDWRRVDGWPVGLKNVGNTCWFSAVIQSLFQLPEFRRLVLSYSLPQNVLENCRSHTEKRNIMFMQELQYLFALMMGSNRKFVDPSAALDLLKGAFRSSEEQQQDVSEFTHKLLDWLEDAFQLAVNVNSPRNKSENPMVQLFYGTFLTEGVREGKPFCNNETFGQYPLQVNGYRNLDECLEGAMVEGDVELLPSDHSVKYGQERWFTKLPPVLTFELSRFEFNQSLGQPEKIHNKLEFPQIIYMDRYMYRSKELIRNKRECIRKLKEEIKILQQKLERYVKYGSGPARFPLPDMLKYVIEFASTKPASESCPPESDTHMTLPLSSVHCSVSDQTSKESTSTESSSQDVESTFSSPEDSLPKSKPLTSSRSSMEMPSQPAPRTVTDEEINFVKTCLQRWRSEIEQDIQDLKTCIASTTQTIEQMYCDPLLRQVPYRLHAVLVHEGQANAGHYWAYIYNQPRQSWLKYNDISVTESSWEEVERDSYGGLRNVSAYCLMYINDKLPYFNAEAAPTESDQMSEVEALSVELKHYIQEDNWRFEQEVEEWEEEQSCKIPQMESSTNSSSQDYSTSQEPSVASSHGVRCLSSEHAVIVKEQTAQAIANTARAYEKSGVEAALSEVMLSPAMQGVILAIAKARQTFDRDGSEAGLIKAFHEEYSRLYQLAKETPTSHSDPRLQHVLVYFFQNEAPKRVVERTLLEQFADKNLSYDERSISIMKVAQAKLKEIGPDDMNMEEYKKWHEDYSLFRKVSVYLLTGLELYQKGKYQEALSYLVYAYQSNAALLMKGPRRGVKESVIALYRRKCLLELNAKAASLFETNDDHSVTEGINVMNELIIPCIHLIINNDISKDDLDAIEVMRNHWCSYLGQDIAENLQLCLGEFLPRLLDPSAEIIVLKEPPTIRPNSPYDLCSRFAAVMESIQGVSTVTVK

| SMILES | IC50 [1] | other results |
| --- | --- | --- |
| Cc1ccc2c(N)c(C(=O)N[C@H]3CCc4cc(N5CC6CCC(C5)N6)ccc4C3)sc2n1 | 110 nM | IC50 (NCI-H226): 150 nM; IC50 (Calu-1): 320 nM; IC50 (LS174T): 70 nM; IC50 (HCT-116): 190 nM |
| CS(=O)(=O)c1ccc(C(=O)Nc2ccc(Cl)c(-c3ccc(CN)cc3)c2)c(Cl)c1 | 360 nM | – |
| CS(=O)(=O)c1ccc(C(=O)Nc2ccc(Cl)c(-c3ccc(N4CCNCC4)cc3)c2)c(Cl)c1 | 4240 nM | – |
| CS(=O)(=O)c1ccc(C(=O)Nc2ccc(Cl)c(-c3ccccc3N)c2)c(Cl)c1 | 8580 nM | – |
| CS(=O)(=O)c1ccc(C(=O)Nc2ccc(Cl)c(-c3ccc(N)cc3)c2)c(Cl)c1 | 5680 nM | – |
| CS(=O)(=O)c1ccc(C(=O)Nc2ccc(Cl)c(-c3cccc(N)c3)c2)c(Cl)c1 | 11000 nM | – |
| CS(=O)(=O)c1ccc(C(=O)Nc2ccc(Cl)c(-c3ccc(CN)cn3)c2)c(Cl)c1 | 2130 nM | – |
| CN(C)c1ccc(-c2cc(NC(=O)c3ccc(S(C)(=O)=O)cc3Cl)ccc2Cl)cc1 | 2820 nM | – |
| COc1ccc(-c2cc(NC(=O)c3ccc(S(C)(=O)=O)cc3Cl)ccc2Cl)cc1 | 2940 nM | – |
| CS(=O)(=O)c1ccc(C(=O)Nc2cc(Cl)cc(-c3ccc(CN)cc3)c2)c(Cl)c1 | 1130 nM | – |
| CS(=O)(=O)c1ccc(C(=O)Nc2ccc(Cl)c(-c3cccc(CN)c3)c2)c(Cl)c1 | 150 nM | – |
